Assays:
Assay in all cases: biochemical
Parameters in all cases: kinase selectivity panel, single concentration, duplicate
TRKA = molecular target: T1, TRKA (Homo sapiens, UniProt P04629)
T1 construct: gene NTRK1
Method: (§1) We next assessed selectivity of MS67 against 22 protein methyltransferases (table S2) and a broad panel of common drug targets including 45 kinases (table S3) and 44 G protein–coupled receptors (GPCR), ion channels, and transporters (table S4). […] We subsequently determined that MS67 had moderate binding affinity (Ki = 1.0 ± 0.8 μM) to Sigma 2 receptor (fig. S10).

CHK2 = molecular target: T2, CHK2 (Homo sapiens, UniProt O96017)
T2 construct: gene CHEK2
T2 sequence (O96017 whole entry): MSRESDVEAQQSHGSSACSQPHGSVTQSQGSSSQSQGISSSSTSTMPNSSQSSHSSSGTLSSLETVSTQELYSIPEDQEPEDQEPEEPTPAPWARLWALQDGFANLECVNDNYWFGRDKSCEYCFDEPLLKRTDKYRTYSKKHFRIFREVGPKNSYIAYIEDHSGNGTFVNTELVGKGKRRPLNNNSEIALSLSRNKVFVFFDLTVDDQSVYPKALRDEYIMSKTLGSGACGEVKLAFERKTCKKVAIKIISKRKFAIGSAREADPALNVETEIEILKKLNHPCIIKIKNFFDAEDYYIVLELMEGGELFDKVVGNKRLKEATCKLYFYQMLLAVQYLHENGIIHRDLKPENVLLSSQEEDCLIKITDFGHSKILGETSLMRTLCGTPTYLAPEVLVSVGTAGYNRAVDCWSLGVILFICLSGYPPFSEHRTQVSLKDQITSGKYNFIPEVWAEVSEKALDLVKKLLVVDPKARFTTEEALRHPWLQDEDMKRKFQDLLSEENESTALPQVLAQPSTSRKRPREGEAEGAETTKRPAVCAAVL
Method: as §1

KDR = KDR (Homo sapiens, UniProt P35968)
Method: as §1

Lck = Lck (Homo sapiens, UniProt P06239)
Sequence of Lck (P06239 whole entry): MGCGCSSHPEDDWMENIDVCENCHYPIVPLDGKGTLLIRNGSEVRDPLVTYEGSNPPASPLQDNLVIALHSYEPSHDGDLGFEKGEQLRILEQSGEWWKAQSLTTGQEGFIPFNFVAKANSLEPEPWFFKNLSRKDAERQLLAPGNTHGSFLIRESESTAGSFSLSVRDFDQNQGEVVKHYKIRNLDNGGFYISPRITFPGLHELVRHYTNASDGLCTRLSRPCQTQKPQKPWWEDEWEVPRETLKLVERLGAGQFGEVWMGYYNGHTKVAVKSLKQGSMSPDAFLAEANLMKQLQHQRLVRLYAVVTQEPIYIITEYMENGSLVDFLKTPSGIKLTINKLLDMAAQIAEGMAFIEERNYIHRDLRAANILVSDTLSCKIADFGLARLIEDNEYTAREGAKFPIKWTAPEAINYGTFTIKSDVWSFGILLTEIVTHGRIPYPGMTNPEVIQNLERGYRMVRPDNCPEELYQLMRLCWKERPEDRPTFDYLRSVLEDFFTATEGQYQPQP
Method: as §1

PAK4 = PAK4 (Homo sapiens, UniProt O96013)
Method: as §1

EphB4 = EphB4 (Homo sapiens, UniProt P54760)
Method: as §1

CDK2/cyclinA = CDK2/cyclinA (Homo sapiens, UniProt P24941)
Method: as §1

Aurora-A = molecular target: T3, Aurora-A (Homo sapiens, UniProt O14965)
T3 construct: gene AURKA
T3 sequence (O14965 whole entry): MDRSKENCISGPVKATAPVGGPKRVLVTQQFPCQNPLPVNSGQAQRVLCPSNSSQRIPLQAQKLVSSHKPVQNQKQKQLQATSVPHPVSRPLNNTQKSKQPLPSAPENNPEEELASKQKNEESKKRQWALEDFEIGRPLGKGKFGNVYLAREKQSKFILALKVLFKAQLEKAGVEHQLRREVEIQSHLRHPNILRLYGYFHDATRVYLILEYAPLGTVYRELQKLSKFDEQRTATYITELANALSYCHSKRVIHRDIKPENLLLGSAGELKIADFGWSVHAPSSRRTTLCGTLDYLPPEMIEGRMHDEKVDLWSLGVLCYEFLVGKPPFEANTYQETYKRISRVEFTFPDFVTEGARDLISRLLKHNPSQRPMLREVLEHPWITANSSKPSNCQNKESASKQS
Method: as §1

TAO2 = molecular target: T4, TAO2 (Homo sapiens, UniProt Q9UL54)
T4 construct: gene TAOK2
Method: as §1

EphA3 = EphA3 (Homo sapiens, UniProt P29320)
Method: as §1

SAPK2a = molecular target: T5, SAPK2a (Homo sapiens, UniProt Q16539)
T5 construct: gene MAPK14
Method: as §1

PDK1 = molecular target: T6, PDK1 (Homo sapiens, UniProt O15530)
T6 construct: gene PDPK1
Method: as §1

PKA = molecular target: T7, PKA (Homo sapiens, UniProt P17612)
T7 construct: gene PRKACA
Method: as §1

CaMKIIα = molecular target: T8, CaMKIIα (Homo sapiens, UniProt Q9UQM7)
T8 construct: gene CAMK2A
Method: as §1

Mnk2 = molecular target: T9, Mnk2 (Homo sapiens, UniProt Q9HBH9)
T9 construct: gene MKNK2
T9 sequence (Q9HBH9 whole entry): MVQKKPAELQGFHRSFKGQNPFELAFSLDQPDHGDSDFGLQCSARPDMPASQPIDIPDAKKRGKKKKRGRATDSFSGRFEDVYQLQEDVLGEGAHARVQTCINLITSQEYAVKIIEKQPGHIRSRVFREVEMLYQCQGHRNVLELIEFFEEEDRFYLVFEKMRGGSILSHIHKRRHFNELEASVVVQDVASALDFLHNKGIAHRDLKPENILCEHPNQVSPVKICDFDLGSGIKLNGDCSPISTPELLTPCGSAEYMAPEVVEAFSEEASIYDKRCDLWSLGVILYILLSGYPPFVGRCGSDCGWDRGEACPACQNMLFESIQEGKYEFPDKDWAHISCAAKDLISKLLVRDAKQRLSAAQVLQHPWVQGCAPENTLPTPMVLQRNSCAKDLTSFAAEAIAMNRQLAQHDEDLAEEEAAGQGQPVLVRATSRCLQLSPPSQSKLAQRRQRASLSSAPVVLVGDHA
Method: as §1

FGFR3 = FGFR3 (Homo sapiens, UniProt P22607)
Method: as §1

IRAK4 = IRAK4 (Homo sapiens, UniProt Q9NWZ3)
Sequence of IRAK4 (Q9NWZ3 whole entry): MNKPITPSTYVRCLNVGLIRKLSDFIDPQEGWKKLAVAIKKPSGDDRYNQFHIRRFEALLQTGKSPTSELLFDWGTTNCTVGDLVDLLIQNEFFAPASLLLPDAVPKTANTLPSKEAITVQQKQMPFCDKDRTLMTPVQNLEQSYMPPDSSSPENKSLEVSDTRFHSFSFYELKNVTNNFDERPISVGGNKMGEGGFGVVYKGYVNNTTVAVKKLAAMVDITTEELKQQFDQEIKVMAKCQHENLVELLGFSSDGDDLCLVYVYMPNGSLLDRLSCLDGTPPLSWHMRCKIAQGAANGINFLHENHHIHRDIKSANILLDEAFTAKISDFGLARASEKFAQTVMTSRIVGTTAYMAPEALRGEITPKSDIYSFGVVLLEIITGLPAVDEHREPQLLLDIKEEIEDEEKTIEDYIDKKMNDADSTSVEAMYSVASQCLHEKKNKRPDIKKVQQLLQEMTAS
Method: as §1

PKBα = molecular target: T10, PKBα (Homo sapiens, UniProt P31749)
T10 construct: gene AKT1
Method: as §1

SGK = molecular target: T11, SGK (Homo sapiens, UniProt O00141)
T11 construct: gene SGK1
Method: as §1

cSRC = molecular target: T12, cSRC (Homo sapiens, UniProt P12931)
T12 construct: gene SRC
Method: as §1

ROCK-I = molecular target: T13, ROCK-I (Homo sapiens, UniProt Q13464)
T13 construct: gene ROCK1
Method: as §1

Abl = molecular target: T14, Abl (Homo sapiens, UniProt P00519)
T14 construct: gene ABL1
T14 sequence (P00519 whole entry): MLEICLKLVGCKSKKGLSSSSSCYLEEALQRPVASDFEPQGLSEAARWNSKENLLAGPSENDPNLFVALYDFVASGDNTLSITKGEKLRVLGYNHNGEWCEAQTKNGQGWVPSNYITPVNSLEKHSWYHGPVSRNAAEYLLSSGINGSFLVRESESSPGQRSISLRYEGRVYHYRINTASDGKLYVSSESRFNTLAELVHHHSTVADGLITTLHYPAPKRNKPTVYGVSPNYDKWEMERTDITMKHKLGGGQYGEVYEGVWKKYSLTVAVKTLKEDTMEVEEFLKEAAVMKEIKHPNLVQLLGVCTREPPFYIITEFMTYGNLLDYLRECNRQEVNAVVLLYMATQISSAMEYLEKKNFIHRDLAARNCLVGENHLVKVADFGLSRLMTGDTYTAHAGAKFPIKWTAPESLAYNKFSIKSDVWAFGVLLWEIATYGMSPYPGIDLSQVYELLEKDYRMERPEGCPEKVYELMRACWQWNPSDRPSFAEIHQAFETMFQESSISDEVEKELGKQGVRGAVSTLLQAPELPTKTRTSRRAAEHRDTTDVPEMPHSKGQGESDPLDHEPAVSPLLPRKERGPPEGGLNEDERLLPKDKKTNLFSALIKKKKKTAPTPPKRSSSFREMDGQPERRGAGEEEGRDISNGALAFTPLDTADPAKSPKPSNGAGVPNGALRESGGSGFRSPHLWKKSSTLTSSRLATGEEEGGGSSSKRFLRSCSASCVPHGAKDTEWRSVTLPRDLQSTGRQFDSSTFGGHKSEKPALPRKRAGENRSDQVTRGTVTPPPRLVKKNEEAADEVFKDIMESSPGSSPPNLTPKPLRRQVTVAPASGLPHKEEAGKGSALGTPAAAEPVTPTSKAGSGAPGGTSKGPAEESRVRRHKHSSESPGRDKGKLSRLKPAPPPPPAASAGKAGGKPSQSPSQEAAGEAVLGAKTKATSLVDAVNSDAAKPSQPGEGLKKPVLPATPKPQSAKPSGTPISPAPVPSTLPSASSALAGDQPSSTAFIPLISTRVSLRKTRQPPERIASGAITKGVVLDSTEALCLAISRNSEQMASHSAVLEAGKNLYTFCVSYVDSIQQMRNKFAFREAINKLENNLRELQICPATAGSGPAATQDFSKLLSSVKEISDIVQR
Method: as §1

Pim-2 = molecular target: T15, Pim-2 (Homo sapiens, UniProt Q9P1W9)
T15 construct: gene PIM2
Method: as §1

NEK2 = NEK2 (Homo sapiens, UniProt P51955)
Method: as §1

IKKα = molecular target: T16, IKKα (Homo sapiens, UniProt O15111)
T16 construct: gene CHUK
Method: as §1

MAP4K4 = MAP4K4 (Homo sapiens, UniProt O95819)
Sequence of MAP4K4 (O95819 whole entry): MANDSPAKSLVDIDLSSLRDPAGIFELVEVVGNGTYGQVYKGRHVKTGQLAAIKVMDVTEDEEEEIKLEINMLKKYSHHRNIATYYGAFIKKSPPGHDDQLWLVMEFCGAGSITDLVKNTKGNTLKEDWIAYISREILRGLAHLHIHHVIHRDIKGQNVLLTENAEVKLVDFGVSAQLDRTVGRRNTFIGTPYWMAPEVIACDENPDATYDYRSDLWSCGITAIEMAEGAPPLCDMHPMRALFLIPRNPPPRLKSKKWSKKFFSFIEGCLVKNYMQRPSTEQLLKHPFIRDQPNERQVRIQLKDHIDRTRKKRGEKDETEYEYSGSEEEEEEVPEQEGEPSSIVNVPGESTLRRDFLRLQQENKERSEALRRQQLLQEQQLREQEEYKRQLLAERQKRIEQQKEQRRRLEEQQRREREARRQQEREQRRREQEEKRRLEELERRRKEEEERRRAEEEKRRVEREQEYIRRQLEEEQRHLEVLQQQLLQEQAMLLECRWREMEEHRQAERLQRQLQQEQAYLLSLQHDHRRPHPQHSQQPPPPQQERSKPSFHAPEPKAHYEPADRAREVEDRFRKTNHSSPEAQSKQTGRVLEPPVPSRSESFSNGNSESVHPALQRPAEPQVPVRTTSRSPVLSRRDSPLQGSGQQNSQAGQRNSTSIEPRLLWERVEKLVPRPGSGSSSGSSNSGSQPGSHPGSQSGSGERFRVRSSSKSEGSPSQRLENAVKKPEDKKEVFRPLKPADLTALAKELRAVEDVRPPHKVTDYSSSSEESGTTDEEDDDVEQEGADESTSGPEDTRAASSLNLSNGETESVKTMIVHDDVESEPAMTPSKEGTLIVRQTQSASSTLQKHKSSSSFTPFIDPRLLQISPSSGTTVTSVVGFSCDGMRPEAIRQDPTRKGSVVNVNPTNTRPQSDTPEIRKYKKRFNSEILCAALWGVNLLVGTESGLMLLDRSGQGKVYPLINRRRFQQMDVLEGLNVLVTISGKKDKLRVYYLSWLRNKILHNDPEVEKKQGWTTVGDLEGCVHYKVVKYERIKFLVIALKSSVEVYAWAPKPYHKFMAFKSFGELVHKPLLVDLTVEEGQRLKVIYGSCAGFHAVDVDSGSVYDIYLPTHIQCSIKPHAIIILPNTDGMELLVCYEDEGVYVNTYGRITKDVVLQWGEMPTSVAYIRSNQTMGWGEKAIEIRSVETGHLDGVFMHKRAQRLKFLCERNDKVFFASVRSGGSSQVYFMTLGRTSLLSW
Method: as §1

Measured: inhibition at 1 µM

Cc1ncsc1-c1ccc([C@H](C)NC(=O)[C@@H]2C[C@@H](O)CN2C(=O)[C@@H](NC(=O)CNC(=O)c2ccc(F)c(-c3ccc(N4C[C@@H](C)N(C)[C@@H](C)C4)c(NC(=O)c4c[nH]c(=O)cc4C(F)(F)F)c3)c2)C(C)(C)C)cc1 [MS67]
< 10%: all assays above

— paper PMC8500670, “A selective WDR5 degrader inhibits acute myeloid leukemia in patient-derived mouse models” (Science translational medicine, 2021)
